Assay results from publication PMC5492227 (European journal of medicinal chemistry, 2017).

Biological target: T1, EPAC1 (Homo sapiens, UniProt O95398)
T1 sequence (O95398 1-923): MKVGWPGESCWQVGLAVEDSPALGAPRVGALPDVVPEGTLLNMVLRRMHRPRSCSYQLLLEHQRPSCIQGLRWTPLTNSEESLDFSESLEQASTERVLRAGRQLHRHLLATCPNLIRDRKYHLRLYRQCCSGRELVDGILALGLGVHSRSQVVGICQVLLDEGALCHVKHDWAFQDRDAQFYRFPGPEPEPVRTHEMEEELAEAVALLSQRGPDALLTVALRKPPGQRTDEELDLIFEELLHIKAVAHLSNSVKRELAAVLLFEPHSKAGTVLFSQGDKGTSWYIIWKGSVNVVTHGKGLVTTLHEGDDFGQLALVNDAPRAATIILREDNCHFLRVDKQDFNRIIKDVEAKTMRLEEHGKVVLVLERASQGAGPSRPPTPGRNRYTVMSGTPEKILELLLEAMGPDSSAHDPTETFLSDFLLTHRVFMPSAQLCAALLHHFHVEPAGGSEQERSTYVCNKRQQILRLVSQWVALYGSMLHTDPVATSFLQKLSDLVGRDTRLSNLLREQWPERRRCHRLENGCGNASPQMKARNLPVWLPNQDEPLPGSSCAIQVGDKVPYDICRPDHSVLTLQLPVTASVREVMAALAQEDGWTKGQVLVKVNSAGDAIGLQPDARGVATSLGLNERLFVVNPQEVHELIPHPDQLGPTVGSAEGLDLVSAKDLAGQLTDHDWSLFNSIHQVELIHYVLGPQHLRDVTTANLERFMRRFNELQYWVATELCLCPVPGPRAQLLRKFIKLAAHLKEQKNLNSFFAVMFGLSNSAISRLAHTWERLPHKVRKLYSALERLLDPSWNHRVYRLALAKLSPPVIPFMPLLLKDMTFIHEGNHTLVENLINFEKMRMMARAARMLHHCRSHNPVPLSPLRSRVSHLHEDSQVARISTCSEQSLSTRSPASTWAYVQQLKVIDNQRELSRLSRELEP
Experiment: biochemical
Assay type: biochemical

SMILES: N#C/C(=N\Nc1cccc(Cl)c1)C(=O)c1cc(-c2ccco2)on1 [Compound 25, N-(3-Chlorophenyl)-2-(5-(furan-2-yl)isoxazol-3-yl)-2-oxoacetohydrazonoyl cyanide]
- IC50 (Rap1b-bGDP EPAC1 IC50, purified recombinant full-length EPAC1, 20 μM cAMP, mean ± SD of at least three independent experiments): 3.6 µM

SMILES: N#C/C(=N\Nc1ccc(Cl)c(C(F)(F)F)c1)C(=O)c1cc(-c2ccccc2)on1 [Compound 14, N-(3-Trifluromethyl-4-chlorophenyl)-2-oxo-2-(5-phenylisoxazol-3-yl)acetohydrazonoyl cyanide]
- fold increase in potency compared to that of 1 (EPAC1): about 5 fold
